Here are results for two molecules from publication PMC4603696, “Discovery and characterization of novel small-molecule inhibitors targeting nicotinamide phosphoribosyltransferase” (Scientific Reports, 2015).

The test system of one assay is NAD level of HepG2 cells. The assay is described as follows: Cellular NAD level, spectrophotometric enzymatic cycling assay. The format is cell-based, human. The conditions noted are these: HepG2, even at 100 μM, 24 hours. The source says:
F0 was the average d fluo rescen ce of si x backgr ound control s, repres ent ing zero activ ity from a si mul ated enz ym e reaction wit h on ly NAMP T but no NAM and com pound; F100 % was the average d fluorescen ce of si x ref erence cont rols, repr ese nt ing 100% activ ity from int act enz ym e reaction w ithou t com pound p ert ur bation.
Compounds with Activ ity% less tha n 40% were consi dered as inhi bi tor s and subj ect ed to a secondary screen inhi bition valida tion, in whi ch anot her backgr oun d cont rol (FC0), a si mul ated enz ym e reaction with NAMP Tand com pound but no NAM, was int roduced to elimina te the di rec t and /or ind irect inf lue nc e fro m compou nd. At thi s st age , the Activ ity% was cal culated accor ding t o e qua tion ( 2) :
In the screeni ng, the si gna l-to- noi se (S/N) rat io was cal cul ated usi ng the equa tion: (Mean signal -Mean backgr oun d) / SD backgr oun d4. Coe fficient s of vari atio n (CV) were the ratio of SD to mean. The Z ’f act or w as de term ine d by e qua tion (3) 5:
Z' −= (3)1−3(S Dhi ghsigna l+SDlowsigna l)
Mean hi gh signa l Meanlow signa l
Determ inat ion of IC50 for NAMPT inhi bitor s […]
vari ous con cent ration s were adde d int o 96-well pl ate. The pl ate was inc uba ted at 37 °C for 5 min after addition of 16.5 μl react ion buf fer cont aini ng N AMP T. The enz ym e reactions were ini tiated by 4.5 μl NAM (1.1 1 μM) follow ing NMN measurem ent as de scri bed above . […]
Cellul ar level of NAD was measured by spe ctrophot om etric enz ym atic cyc ling assa y, as de scri bed pr evi ousl y6-8. […]
Cell vi ability was de termine d by ou r previ ous method9 usi ng the Cell Counting Kit-8 (CCK -8, Dojindo, Ja pa n). […] Th e absor banc e at 450 nm (A450) was de tected by a pl ate reade r. […]
Briefly, cel ls were se ede d int o 96-well pl ates, cul tur ed overni ght , and trea ted with correspond ing com poun ds for 72 h. […] Sul for hoda mine B in the cells was di sso lved in 10 mmol/L Tris-HCl and was measured at 515 nm usi ng a multiw ell spect ropho tometer […]

For assay [1], the target named is T1, NAMPT (Homo sapiens, UniProt P43490). As to the kind of experiment: NAMPT activity assay by fluorescence of NMN derivative (HTS system), IC50 determination. The assay is classed as biochemical. On the set-up: His-tag; made in house; host or cells: E. coli BL21-CodonPlus (DE3)-RIL.
T1 sequence (P43490 whole entry): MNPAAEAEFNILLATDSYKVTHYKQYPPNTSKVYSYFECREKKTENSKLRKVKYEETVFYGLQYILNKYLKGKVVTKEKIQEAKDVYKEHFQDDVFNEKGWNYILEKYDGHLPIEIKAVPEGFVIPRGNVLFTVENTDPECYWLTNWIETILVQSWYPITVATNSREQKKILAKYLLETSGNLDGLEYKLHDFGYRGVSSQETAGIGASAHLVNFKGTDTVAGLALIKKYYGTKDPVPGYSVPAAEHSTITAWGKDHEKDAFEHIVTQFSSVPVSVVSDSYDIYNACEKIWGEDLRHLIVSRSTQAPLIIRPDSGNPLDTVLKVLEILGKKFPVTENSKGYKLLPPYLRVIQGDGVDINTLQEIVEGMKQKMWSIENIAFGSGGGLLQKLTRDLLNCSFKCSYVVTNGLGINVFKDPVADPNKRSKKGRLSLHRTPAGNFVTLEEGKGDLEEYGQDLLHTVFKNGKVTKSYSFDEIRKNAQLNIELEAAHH
The target of assay [2] is T1, NAMPT. On the set-up: His-tag; made in house; host or cells: E. coli BL21-CodonPlus (DE3)-RIL. To be noted: previous study of the authors ref 7; read-out: NAMPT inhibition activity IC50; cited from earlier work.

On to `O=S(=O)(c1ccc(NC(=S)NCc2ccncc2)cc1)N1CCCCC1` [compound 733, reference compound], for which the “effect on cellular NAD level (in words)” value with NAD level of HepG2 cells is “did not show any effect”. Moreover, at NAMPT [1], the “inhibition on NAMPT activity (in words)” value is given as “no inhibition”.

In the case of `O=C(OC[C@H]1O[C@@H](OC(=O)c2cc(O)c(O)c(OC(=O)c3cc(O)c(O)c(O)c3)c2)[C@H](OC(=O)c2cc(O)c(O)c(OC(=O)c3cc(O)c(O)c(O)c3)c2)[C@@H](OC(=O)c2cc(O)c(O)c(OC(=O)c3cc(O)c(O)c(O)c3)c2)[C@@H]1OC(=O)c1cc(O)c(O)c(OC(=O)c2cc(O)c(O)c(O)c2)c1)c1cc(O)c(O)c(OC(=O)c2cc(O)c(O)c(O)c2)c1` [gallotannin], on NAMPT [2], the IC50 is 1.3 ± 0.1 µM.
